Results: ChEMBL document CHEMBL1157329, “Granulatamides A and B, cytotoxic tryptamine derivatives from the soft coral Eunicella granulata” (2006)

Tests used:
Format in all cases: functional
[1] = test system: DU-145; assay: Cytotoxicity against human DU145 cells by SRB assay
[2] = test system: LNCaP; assay: Cytotoxicity against human LNcaP cells by SRB assay
[3] = test system: SK-OV-3; assay: Cytotoxicity against human SK-OV-3 cells by SRB assay
[4] = Cytotoxicity against human IGROV cells by SRB assay
[5] = Cytotoxicity against human ecteinascidin-743-resistant IGROV-ET cells by SRB assay
[6] = test system: SK-BR-3; assay: Cytotoxicity against human SK-BR3 cells by SRB assay
[7] = test system: SK-MEL-28; assay: Cytotoxicity against human SK-MEL-28 cells by SRB assay
[8] = Cytotoxicity against human HMEC1 cells by SRB assay; conditions: HMEC-1
[9] = test system: A549; assay: Cytotoxicity against human A549 cells by SRB assay
[10] = test system: K562; assay: Cytotoxicity against human K562 cells by SRB assay
[11] = test system: PANC-1; assay: Cytotoxicity against human PANC1 cells by SRB assay
[12] = test system: HT-29; assay: Cytotoxicity against human HT29 cells by SRB assay
[13] = test system: LoVo; assay: Cytotoxicity against human LOVO cells by SRB assay
[14] = test system: LoVo; assay: Cytotoxicity against human doxorubicin-resistant LOVO cells by SRB assay
[15] = test system: HeLa; assay: Cytotoxicity against human HeLa cells by SRB assay
[16] = test system: HeLa; assay: Cytotoxicity against human aplidin-resistant HeLa cells by SRB assay

CCCCCCCCC/C(C)=C\C(=O)NCCc1c[nH]c2ccccc12 [GRANULATAMIDE A]
GI50 [1]: 1.7 µM
GI50 [2]: 4.7 µM
GI50 [3]: 11.6 µM
GI50 [4]: 6.7 µM
GI50 [5]: 12.7 µM
GI50 [6]: 2.7 µM
GI50 [7]: 3.9 µM
GI50 [8]: 6.2 µM
GI50 [9]: 6.7 µM
GI50 [10]: 6.8 µM
GI50 [11]: 10.4 µM
GI50 [12]: 2.2 µM
GI50 [13]: 10.5 µM
GI50 [14]: 12 µM

CCCCCCC/C(C)=C/C(C)=C\C(=O)NCCc1c[nH]c2ccccc12 [GRANULATAMIDE B]
GI50 [1]: 7.7 µM
GI50 [2]: 3.5 µM
GI50 [4]: 8.2 µM
GI50 [5]: 6.7 µM
GI50 [6]: 6 µM
GI50 [7]: 10.6 µM
GI50 [9]: 8.9 µM
GI50 [10]: 4.3 µM
GI50 [11]: 6.5 µM
GI50 [12]: 13.8 µM
GI50 [13]: 8.6 µM
GI50 [14]: 10 µM
GI50 [15]: 9.7 µM
GI50 [16]: 9 µM
